This is an account of results in US20250326748A1, “COMPOUNDS AND METHODS FOR MODULATING SPLICING” (REMIX THERAPEUTICS INC., priority 2022, published 2025).

The subject of one experiment is HTT mRNA. In words: Splicing RT-qPCR assay, HTT canonical (CJ) and alternative (AJ) junction mRNA. It counts as cell-based, human. To be noted: Homo sapiens; for IC50: canonical junction mRNA; for AC50: alternative junction mRNA, read-out: HTT AJ (AC50, increase in AJ mRNA). Summed up:
(§1)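 One-step RT-qPCR on cell lysates quantified CJ and AJ isoforms, normalized to PPIA for A673 or GAPDH/GUSB for K562. Cells were exposed for 24 h at 37° C to 11 concentrations in 3-fold steps up to 10 uM, with DMSO ≤0.25%. A673 were grown in DMEM and K562 in IMDM, both with 10% FBS.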

Another experiment relates to MYB mRNA. Description: Splicing RT-qPCR assay, MYB canonical (CJ) and alternative (AJ) junction mRNA. To be noted: Homo sapiens; for IC50: canonical junction mRNA; for AC50: alternative junction mRNA, read-out: MYB AJ (AC50, increase in AJ mRNA). It counts as cell-based, human. An outline of the steps: as §1
(In qPCR the cycle at which signal appears reflects the starting amount.)

Setting [1] is: 24 h, RT-qPCR, A673 or K562 cells, 24 hours treatment, read-out: HTT CJ (IC50, decrease in CJ mRNA).
Where [2] appears, read: qPCR panel, read-out: HTT CJ (decrease in CJ mRNA levels, IC50).
The mark [3] stands for this setting: RT-qPCR, A673 or K562 cells, 24 hours treatment.
The mark [4] stands for this setting: qPCR panel, read-out: MYB CJ (decrease in CJ mRNA levels, IC50).
Setting [5] is: RT-qPCR, A673 or K562 cells, 24 hours treatment, read-out: MYB CJ (IC50, decrease in CJ mRNA).

Read-outs that look alike come from different tables or passages of the source.

The IC50 is the concentration that gives 50% inhibition. The AC50 is the concentration giving half of the maximal activity seen. Consider `Cn1cc2cc(-c3ccc4cc(N5CC[C@H](NC(C)(C)C)C5)cnc4n3)c(O)cc2n1` (single isomer, unassigned) [Compound 200], for which the IC50 in the experiment with HTT mRNA (setting [1]) was 1000 to 10000 nM; in the experiment with HTT mRNA (setting [2]) it was 1000 to 10000 nM; in the experiment with MYB mRNA (setting [4]), 100 to 1000 nM; with MYB mRNA (setting [5]) it was 100 to 1000 nM. Moreover, the AC50 was 1000 to 10000 nM in the experiment on HTT mRNA (setting [3]) and 100 to 1000 nM with MYB mRNA (setting [3]).
As to `CNC1CCN(c2cnc3nc(-c4cc(F)c5nc(C)cn5c4)ccc3c2)C1` (stereo not drawn) [Compound 100, 1-(7-{8-fluoro-2-methylimidazo[1,2-a]pyridin-6-yl}-1,8-naphthyridin-3-yl)-N-methylpyrrolidin-3-amine], the IC50 was 100 to 1000 nM with HTT mRNA (setting [1]), 100 to 1000 nM with HTT mRNA (setting [2]), less than 100 nM with MYB mRNA (setting [4]) and less than 100 nM in the experiment on MYB mRNA (setting [5]). Besides, the AC50 in the experiment on HTT mRNA (setting [3]) is 100 to 1000 nM; in the experiment on MYB mRNA (setting [3]), less than 100 nM.
Take `Cn1cc2cc(-c3cnc4nc(N5CCNCC5)cc(Cl)c4c3)cc(F)c2n1` [Compound 101, 4-chloro-6-(7-fluoro-2-methyl-2H-indazol-5-yl)-2-(piperazin-1-yl)-1,8-naphthyridine]: the IC50 in the experiment on HTT mRNA (setting [1]) lay within 1000 to 10000 nM; in the experiment with HTT mRNA (setting [2]) it was 1000 to 10000 nM; with MYB mRNA (setting [4]), 100 to 1000 nM; in the experiment on MYB mRNA (setting [5]), 100 to 1000 nM. In addition, the values for the AC50 in the experiment with HTT mRNA (setting [3]) and in the experiment with MYB mRNA (setting [3]) were 1000 to 10000 nM and less than 100 nM, respectively.
For `Cn1cc2cc(-c3cc(Cl)c4cc(N5CCNCC5)cnc4n3)c(O)cc2n1` [Compound 102, 5-[4-chloro-6-(piperazin-1-yl)-1,8-naphthyridin-2-yl]-2-methylindazol-6-ol], the IC50 is 100 to 1000 nM in the experiment on HTT mRNA (setting [1]), 100 to 1000 nM with HTT mRNA (setting [2]), less than 100 nM in the experiment with MYB mRNA (setting [4]) and less than 100 nM in the experiment on MYB mRNA (setting [5]). Further, the AC50 is 100 to 1000 nM in the experiment on HTT mRNA (setting [3]) and less than 100 nM in the experiment with MYB mRNA (setting [3]).
With `Cn1cc2cc(-c3cc(Cl)c4cc(N5CCNCC5)cnc4n3)cc(F)c2n1` [Compound 103], the half-inhibitory concentration (IC50) in the experiment on HTT mRNA (setting [1]) is 100 to 1000 nM; with HTT mRNA (setting [2]) it was 100 to 1000 nM; in the experiment on MYB mRNA (setting [4]), less than 100 nM; with MYB mRNA (setting [5]), less than 100 nM. The values for the AC50 in the experiment on HTT mRNA (setting [3]) and in the experiment with MYB mRNA (setting [3]) were 1000 to 10000 nM and less than 100 nM, respectively.
Consider `Cc1c(O)c(-c2cc(Cl)c3cc(N4CCNCC4)cnc3n2)cc2cn(C)nc12` [Compound 154, 5-[4-chloro-6-(piperazin-1-yl)-1,8-naphthyridin-2-yl]-2,7-dimethylindazol-6-ol], for which the IC50 is 100 to 1000 nM with HTT mRNA (setting [1]), 100 to 1000 nM in the experiment with HTT mRNA (setting [2]), less than 100 nM in the experiment with MYB mRNA (setting [4]) and less than 100 nM with MYB mRNA (setting [5]). The results for the AC50 in the experiment on HTT mRNA (setting [3]) and in the experiment on MYB mRNA (setting [3]) were 100 to 1000 nM and less than 100 nM, respectively.
Take `Cn1cc2cc(-c3cc(Cl)c4cc(N5CCNCC5)cnc4n3)c(O)c(F)c2n1` [Compound 155, 5-[4-chloro-6-(piperazin-1-yl)-1,8-naphthyridin-2-yl]-7-fluoro-2-methylindazol-6-ol]: the IC50 in the experiment with HTT mRNA (setting [1]), with HTT mRNA (setting [2]), with MYB mRNA (setting [4]) and with MYB mRNA (setting [5]) was less than 100 nM throughout. Besides, the AC50 in the experiment on HTT mRNA (setting [3]) and in the experiment on MYB mRNA (setting [3]) was less than 100 nM throughout.
As for `Cc1c(O)c(-c2ncc3cc(N4CC[C@@H](N)C4)cnc3n2)cc2cn(C)nc12` [Compound 159, (R)-5-(6-(3-aminopyrrolidin-1-yl)pyrido[2,3-d]pyrimidin-2-yl)-2,7-dimethyl-2H-indazol-6-ol 2,2,2-trifluoroacetate], the IC50 in the experiment with HTT mRNA (setting [1]), in the experiment on HTT mRNA (setting [2]), in the experiment on MYB mRNA (setting [4]) and with MYB mRNA (setting [5]) was less than 100 nM each time. Besides, the AC50 with HTT mRNA (setting [3]) is 100 to 1000 nM; with MYB mRNA (setting [3]), less than 100 nM.
On to `Cc1c(O)c(-c2ncc3cc(N4CC[C@H](N)C4)cnc3n2)cc2cn(C)nc12` [Compound 160, (S)-5-(6-(3-aminopyrrolidin-1-yl)pyrido[2,3-d]pyrimidin-2-yl)-2,7-dimethyl-2H-indazol-6-ol 2,2,2-trifluoroacetate], for which the IC50 in the experiment with HTT mRNA (setting [1]) was 100 to 1000 nM; in the experiment with HTT mRNA (setting [2]), 100 to 1000 nM; with MYB mRNA (setting [4]) it was less than 100 nM; with MYB mRNA (setting [5]), less than 100 nM. Moreover, the values for the AC50 in the experiment on HTT mRNA (setting [3]) and in the experiment with MYB mRNA (setting [3]) were 100 to 1000 nM and less than 100 nM, respectively.
`CNC1CCN(c2cnc3nc(-c4cc5cn(C)nc5c(C)c4O)nc(OC)c3c2)C1` (stereo not drawn) [Compound 161, 5-{4-methoxy-6-[3-(methylamino)pyrrolidin-1-yl]pyrido[2,3-d]pyrimidin-2-yl}-2,7-dimethylindazol-6-ol]: the IC50 was 100 to 1000 nM with HTT mRNA (setting [1]), 100 to 1000 nM in the experiment with HTT mRNA (setting [2]), less than 100 nM in the experiment on MYB mRNA (setting [4]) and less than 100 nM with MYB mRNA (setting [5]). Also, the AC50 was 100 to 1000 nM with HTT mRNA (setting [3]) and less than 100 nM in the experiment on MYB mRNA (setting [3]).
On to `COc1nc(-c2cc3cn(C)nc3c(C)c2O)nc2ncc(N3CCNCC3)cc12` [Compound 162, 5-[4-methoxy-6-(piperazin-1-yl)pyrido[2,3-d]pyrimidin-2-yl]-2,7-dimethylindazol-6-ol], for which the 50% inhibitory concentration (IC50) with HTT mRNA (setting [1]) is 100 to 1000 nM; in the experiment with HTT mRNA (setting [2]) it was 100 to 1000 nM; in the experiment with MYB mRNA (setting [4]), less than 100 nM; in the experiment with MYB mRNA (setting [5]) it was less than 100 nM. Also, the AC50 is 100 to 1000 nM in the experiment on HTT mRNA (setting [3]) and less than 100 nM in the experiment on MYB mRNA (setting [3]).
For the compound `COc1nc(-c2cc3cn(C)nc3c(C)c2O)nc2ncc(N3CCC(N(C)C)CC3)cc12` [Compound 163, 5-{6-[4-(dimethylamino)piperidin-1-yl]-4-methoxypyrido[2,3-d]pyrimidin-2-yl}-2,7-dimethylindazol-6-ol], the IC50 in the experiment on HTT mRNA (setting [1]) lay within 1000 to 10000 nM; in the experiment on HTT mRNA (setting [2]) it was 1000 to 10000 nM; with MYB mRNA (setting [4]) it was 100 to 1000 nM; in the experiment with MYB mRNA (setting [5]), 100 to 1000 nM. Further, the AC50 is more than 10000 nM in the experiment on HTT mRNA (setting [3]) and 100 to 1000 nM in the experiment on MYB mRNA (setting [3]).
As for `Cn1cc2cc(-c3cnc4cc(N5CCC(NC6CC6)C5)ccc4n3)c(O)c(F)c2n1` (stereo not drawn) [Compound 175, 5-[6-[3-(cyclopropylamino)pyrrolidin-1-yl]quinoxalin-2-yl]-7-fluoro-2-methyl-indazol-6-ol], the IC50 in the experiment with HTT mRNA (setting [1]), in the experiment on HTT mRNA (setting [2]), with MYB mRNA (setting [4]) and in the experiment with MYB mRNA (setting [5]) was less than 100 nM each time. Further, the AC50 with HTT mRNA (setting [3]) and in the experiment with MYB mRNA (setting [3]) was less than 100 nM each time.
For the compound `Cn1cc2cc(-c3cnc4cc(N5CC[C@H](NC6CC6)C5)ccc4n3)c(O)c(F)c2n1` [Compound 176, 5-[6-[(3S)-3-(cyclopropylamino)318quinoxaline-1-yl]318quinoxaline-2-yl]-7-fluoro-2-methyl-indazol-6-ol], the IC50 with HTT mRNA (setting [1]), with HTT mRNA (setting [2]), in the experiment on MYB mRNA (setting [4]) and in the experiment on MYB mRNA (setting [5]) was less than 100 nM throughout. Also, the AC50 in the experiment on HTT mRNA (setting [3]) and with MYB mRNA (setting [3]) was less than 100 nM each time.
In the case of `Cn1cc2cc(-c3cnc4cc(N5CC[C@@H](NC6CC6)C5)ccc4n3)c(O)c(F)c2n1` [Compound 177, 5-[6-[(3R)-3-(cyclopropylamino)318quinoxaline-1-yl]318quinoxaline-2-yl]-7-fluoro-2-methyl-indazol-6-ol], the IC50 in the experiment on HTT mRNA (setting [1]), with HTT mRNA (setting [2]), in the experiment with MYB mRNA (setting [4]) and in the experiment with MYB mRNA (setting [5]) was less than 100 nM throughout. Further, the AC50 in the experiment with HTT mRNA (setting [3]) and in the experiment with MYB mRNA (setting [3]) was less than 100 nM each time.
For the compound `Cn1cc2cc(-c3cnc4nc(N5CCC(NC6CC6)C5)ccc4n3)c(O)c(F)c2n1` (stereo not drawn) [Compound 178, 5-[6-[3-(cyclopropylamino)pyrrolidin-1-yl]pyrido[2,3-b]pyrazin-2-yl]-7-fluoro-2-methyl-indazol-6-ol], the IC50 in the experiment on HTT mRNA (setting [1]), with HTT mRNA (setting [2]), in the experiment on MYB mRNA (setting [4]) and with MYB mRNA (setting [5]) was less than 100 nM in each case. The AC50 in the experiment on HTT mRNA (setting [3]) and in the experiment with MYB mRNA (setting [3]) was 100 to 1000 nM throughout.
